These results are taken from publication PMC7775144, “Enzyme Inhibitory Kinetics and Molecular Docking Studies of Halo-Substituted Mixed Ester/Amide-Based Derivatives as Jack Bean Urease Inhibitors” (BioMed Research International, 2020).

Entries after “also recorded” stand apart in the source; their conditions may differ. Read-outs that look alike come from different tables or passages of the source.

In data set [1] the target is T1, jack bean urease (Canavalia ensiformis, UniProt P07374). Description: biochemical. In kind it is biochemical. How it is done: The inhibitory effects on urease activity were done based on the Weatherburn method, using the indophenol scheme by determining the amount of ammonia produced. Briefly, 20 μL of jack bean urease enzyme (0.135 units) and 20 μL of the tested compounds were taken in 50 μL buffer and were incubated for 30 min. Temperature was kept at 37°C in a 96-well plate reader. The buffer solution was made by 0.01 molar K2HPO4/KH2PO4, 1 mM EDTA, 100 mM urea, and 0.01 M LiCl; pH was maintained at 7.0. Then, 50 μL of phenol reagent (1% w/v phenol and 0.005% w/v sodium nitroprusside) was added in 50 μL of alkali reagent in each well. The alkali reagent was prepared by 0.5% w/v NaOH and 0.1% NaOCl. Absorbance was measured at 625 nm using OPTIMax, a tunable microplate reader, after 10 min interval in a triplicate manner. The thiourea was used as a standard jack bean urease inhibitor. The data has been analyzed using software, GraphPad Prism, and statistical analysis (SD) was performed by using SigmaPlot software to get SD values of the bioassay results.

The target of data set [2] is T1, jack bean urease. Description: Kinetic study of jack bean urease inhibition (Lineweaver-Burk plots). In kind it is biochemical. Further details: 1/Vmax: unit not given here. The method, then: The derivative 4b was selected on the basis of its high activity for the determination of its kinetic mechanism on jack bean urease. The enzyme inhibition EI and enzyme-substrate inhibition ESI constants for compound 4b have been determined. The inhibitor concentration used in the kinetic experiments was 0.00, 0.0008, and 0.0016 μM while concentration of substrate was 0.0, 0.1, 0.2, 0.3, and 0.4 mM. The kinetic mechanism was determined by plotting of 1/V versus 1/[S] in the presence of inhibitor concentrations which gave a series of straight lines as shown in Figure 3. […] The EI dissociation constant (Ki) and ESI dissociation constant (Ki′) for compound 4b have also been determined from Lineweaver-Burk plots.

Data set [3] concerns the target T1, jack bean urease. The settings on record: jack bean urease inhibitors already reported; ref [35], [36]; cited from earlier work.
Setting [4] is: n = 3, 30 min, 37°C, pH 7.0, 100 mM urea, read-out: Urease (jack bean) inhibition IC50 ± SD.

T1 sequence (P07374 whole entry, looked up): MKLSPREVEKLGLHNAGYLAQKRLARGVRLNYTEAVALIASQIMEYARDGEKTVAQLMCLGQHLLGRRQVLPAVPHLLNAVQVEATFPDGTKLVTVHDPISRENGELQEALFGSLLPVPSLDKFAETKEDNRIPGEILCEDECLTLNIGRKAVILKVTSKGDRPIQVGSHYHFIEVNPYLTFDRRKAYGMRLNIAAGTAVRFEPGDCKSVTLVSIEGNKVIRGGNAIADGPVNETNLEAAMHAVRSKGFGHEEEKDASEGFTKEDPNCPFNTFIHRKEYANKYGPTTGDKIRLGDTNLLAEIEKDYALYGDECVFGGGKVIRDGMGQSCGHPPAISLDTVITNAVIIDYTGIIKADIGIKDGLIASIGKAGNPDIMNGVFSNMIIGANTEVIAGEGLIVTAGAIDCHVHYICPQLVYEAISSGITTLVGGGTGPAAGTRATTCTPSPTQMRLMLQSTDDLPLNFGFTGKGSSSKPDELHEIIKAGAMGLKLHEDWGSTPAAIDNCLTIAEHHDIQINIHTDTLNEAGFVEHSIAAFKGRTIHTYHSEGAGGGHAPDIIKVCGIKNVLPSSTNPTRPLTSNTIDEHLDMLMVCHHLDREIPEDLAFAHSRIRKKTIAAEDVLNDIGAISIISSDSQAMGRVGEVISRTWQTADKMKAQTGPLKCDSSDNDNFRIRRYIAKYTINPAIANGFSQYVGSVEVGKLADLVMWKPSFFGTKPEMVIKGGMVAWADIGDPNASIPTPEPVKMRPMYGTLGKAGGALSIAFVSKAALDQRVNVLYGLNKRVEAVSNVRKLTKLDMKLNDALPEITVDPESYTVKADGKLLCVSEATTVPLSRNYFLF

Usually IC50 stands for the concentration needed to halve the response being measured. Take “2-((5-Isopropyl-2-methyl phenyl) Amino)-2-oxoethyl 2-Bromobenzoate [4i]”: the IC50 at jack bean urease [1] (setting [4]) stood at 21.1 ± 0.7 nM. With “2-((5-Isopropyl-2-methyl phenyl) Amino)-2-oxoethyl 3,4-Dichlorobenzoate [4k]”, at jack bean urease [1] (setting [4]), the half-maximal inhibitory concentration (IC50) is 50.1 ± 1.7 nM. As for “2-((5-Isopropyl-2-methyl phenyl) Amino)-2-oxoethyl 3-Bromobenzoate [4j]”, the IC50 at jack bean urease [1] (setting [4]) is 2.1 ± 0.1 nM. The “times more active than derivative 4k” value at jack bean urease [1] (ratio of urease inhibitory activity, 4j versus 4k) turned out to be 25.

One may read the melting point as the temperature, or range, at which the solid turns liquid. As for `CC(C)c1ccc(NC(=O)COC(=O)c2ccccc2Cl)cc1` [4a, 2-((4-Isopropylphenyl)amino)-2-oxoethyl 2-Chlorobenzoate], the melting point fell in the range of 94 to 96 °C. Also, at jack bean urease [1], the IC50 worked out at 57.1 ± 1.9 nM.

For orientation: Ki means the equilibrium dissociation constant of an inhibitor or competing ligand from its target. In turn, `CC(C)c1ccc(NC(=O)COC(=O)c2cccc(Cl)c2)cc1` [4b, 2-((4-Isopropylphenyl)amino)-2-oxoethyl 3-Chlorobenzoate] returned a melting point of 96 to 98 °C. Also, the Ki on jack bean urease [2] is 0.7 nM. Moreover, the Inhibition type result at jack bean urease [2] (Lineweaver-Burk plots) is listed as “mixed type of inhibitor; also recorded: mixed type of inhibition”. Besides, the “Ki′ (ESI dissociation constant)” value at jack bean urease [2] (from Lineweaver-Burk plots) is 1.8 nM. Moreover, the 1/Vmax at jack bean urease [2] (inhibitor dose 0.0016 μM, substrate urea) stood at 0.00088. Besides, on jack bean urease [1], it took 1.6 ± 0.2 nM to reach half-maximal inhibition (IC50).

Turning to `CC(C)c1ccc(NC(=O)COC(=O)c2ccc(Cl)c(Cl)c2)cc1` [4c, 2-((4-Isopropylphenyl)amino)-2-oxoethyl 3,4-Dichlorobenzoate], the melting point fell in the range of 107 to 108 °C. In addition, half-maximal inhibition on jack bean urease [1] (IC50) was put at 18.2 ± 0.6 nM.

The molecule `CC(C)c1ccc(NC(=O)COC(=O)c2ccccc2Br)cc1` [4d, 2-((4-Isopropylphenyl)amino)-2-oxoethyl 2-Bromobenzoate] gave a melting point of 89 to 90 °C. The molecule also registered an IC50 at jack bean urease [1] of 3.8 ± 0.2 nM.

`CC(C)c1ccc(NC(=O)COC(=O)c2cccc(Br)c2)cc1` [4e, 2-((4-Isopropylphenyl)amino)-2-oxoethyl 3-Bromobenzoate] returned a melting point of 91 to 92 °C. Further, inhibition against jack bean urease [1] was half-maximal at 62.7 ± 2.1 nM (IC50). `CC(C)c1ccc(NC(=O)COC(=O)c2ccccc2I)cc1` [4f, 2-((4-Isopropylphenyl)amino)-2-oxoethyl 2-Iodobenzoate]: the melting point lay within 91 to 92 °C. At jack bean urease [1], the midpoint of inhibition, the IC50, lay at 31.2 ± 1.1 nM. In the same order, the values of `Cc1ccc(C(C)C)cc1NC(=O)COC(=O)c1ccccc1Cl` [4g, 2-((5-Isopropyl-2-methylphenyl) Amino)-2-oxoethyl 2-Chloro Benzoate] are 115 to 116 °C and 3.8 ± 0.2 nM. Regarding `Cc1ccc(C(C)C)cc1NC(=O)COC(=O)c1ccccc1I` [4l, 2-((5-Isopropyl-2-methylphenyl) Amino)-2-oxoethyl 2-Iodobenzoate], the IC50 against jack bean urease [1] is 11.5 ± 3.9 nM. Take `NC(N)=S` [Thiourea, thiourea, reference compound]: the IC50 at jack bean urease [1] (setting [4]) came out at 472 ± 135 nM. For `Cc1ccc(C(=O)NC(=S)Nc2coc(=O)c3ccccc23)cc1` [compound 2], the half-maximal inhibitory concentration (IC50) on jack bean urease [3] was 6.5 nM.
